Like-named read-outs stand apart in the source and are kept apart here.
What was measured:
Test in all cases: ESI-MS titration
Assay type in all cases: binding
β-2-microglobulin (β2m) [1] = molecular target: T1, β-2-microglobulin (β2m) (Homo sapiens, UniProt P61769)
β-2-microglobulin (β2m) [2] = molecular target: T1, β-2-microglobulin (β2m); remark: listed apart in the source
β-2-microglobulin (β2m) [3] = molecular target: T1, β-2-microglobulin (β2m); remark: listed apart in the source

T1 sequence (P61769 21-119): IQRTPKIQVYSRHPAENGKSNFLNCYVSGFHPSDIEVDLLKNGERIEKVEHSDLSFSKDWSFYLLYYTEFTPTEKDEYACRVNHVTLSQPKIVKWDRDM

## CO[C@H]1/C=C/O[C@@]2(C)Oc3c(C)c(O)c4c(O)c(cc(O)c4c3C2=O)NC(=O)/C(C)=C\C=C\[C@H](C)[C@H](O)[C@@H](C)[C@@H](O)[C@@H](C)[C@H](OC(C)=O)[C@@H]1C [rifamycin SV]
β-2-microglobulin (β2m) [1]
  Kd: 250 ± 25 µM

## C[C@H]1c2cccc(O)c2C(=O)C2=C(O)[C@]3(O)C(=O)C(C(N)=O)=C(O)[C@@H](N(C)C)[C@@H]3[C@@H](O)[C@@H]21 [doxycycline]
β-2-microglobulin (β2m) [2]
  Kd: 200 ± 20 µM

## Cc1ccc(C(=O)Nc2ccc(S(=O)(=O)O)c3cc(S(=O)(=O)O)cc(S(=O)(=O)O)c23)cc1NC(=O)c1cccc(NC(=O)Nc2cccc(C(=O)Nc3cc(C(=O)Nc4ccc(S(=O)(=O)O)c5cc(S(=O)(=O)O)cc(S(=O)(=O)O)c45)ccc3C)c2)c1 [suramin]
β-2-microglobulin (β2m) [3]
  Kd: 40 ± 2 µM
